Our source for the GI50 and TGI values is PubChem BioAssay (NCI).

Experiment in all cases: inhibition of tumour cell growth, NCI panel, 48 h
Assay [1] relates to HCC-2998 colon.
Assay [2] deals with SW-620 colon.
In assay [3] the test system is CCRF-CEM leukemia.
Assay [4] relates to NCI-H460 lung.
Assay [5] relates to NCI-H23 lung.
The subject of assay [6] is COLO 205 colon.
The subject of assay [7] is U251 CNS.
The subject of assay [8] is HT29 colon.
Assay [9] concerns UACC-257 melanoma.
Assay [10] relates to OVCAR-4 ovarian.

Where “and” joins values, the source holds several entries; their conditions need not be identical. Equal values may be shown once.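 Five concentrations, 48 hours, 96-well plates. GI50: concentration for 50% inhibition of growth. TGI is the concentration that stops growth completely.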 Some results are limits rather than exact numbers.

Consider `C/C1=C\[C@H](C)C[C@H](C)OC(=O)C[C@H](c2ccc(O)cc2)NC(=O)[C@@H](Cc2c(Br)[nH]c3ccccc23)N(C)C(=O)[C@H](C)NC(=O)[C@@H](C)C1`, for which the GI50 is 0.43 µM in [1]; 0.0347 µM in assay [2]; 0.114 µM in [3]; 0.0126 µM in assay [4]; 0.114 µM in assay [5]; less than 0.0132 µM in assay [6]. Moreover, the GI50 in assay [7] is 0.0328 µM; in assay [8], 0.0216 µM; in assay [9], 0.0747 µM; in assay [10] it was 0.0969 µM. Besides, the TGI in assay [1] is 2.27 µM; in [2], more than 100 µM; in assay [3], more than 23.7 µM; in assay [4], 23.6 µM; in assay [5], 1.05 µM; in assay [6], 0.887 µM. Also, the TGI is 0.859 µM and 0.74 µM in [7]; 0.897 µM and 8.94 µM in assay [8]; 0.37 µM and 1.15 µM in assay [9]; 0.95 µM and 3.11 µM in [10].
For `COc1ccc(/C(C)=C(\c2ccc(Cl)cc2)c2ccc(OCCN3CCCC3)cc2)cc1`, the GI50 in assay [1] is 3.06 µM; in assay [2] it was 3.04 µM; in [3] it was 3.79 µM; in assay [4] it was 3.36 µM; in assay [5], 4.29 µM; in assay [6], 3.57 µM. The GI50 in assay [7] is 3.9 µM; in assay [8], 1.15 µM; in assay [9], 4.6 µM; in assay [10] it was 3.61 µM. In addition, the TGI in assay [1] stood at 7.41 µM; in assay [2], 7.33 µM; in [3], 11.4 µM; in [4], 7.46 µM; in assay [5], 8.98 µM; in [6], 7.74 µM. For the same molecule, the TGI is 8.3 µM in assay [7], 4.08 µM in assay [8], 9.24 µM in [9] and 7.64 µM in assay [10].
`Cn1nc(C(F)(F)F)c(-c2ccc(Cl)c(C(F)(F)F)c2)c1-c1ccc(OCc2ccc(Cl)cc2)cc1O`: the GI50 is 1.88 µM in [1]; 1.84 µM in [2]; 1.85 µM in assay [3]; 1.71 µM in assay [4]; 1.41 µM in assay [5]; 1.41 µM in assay [6]. In addition, the GI50 in assay [7] was 1.66 µM; in assay [8] it was 1.62 µM; in [9] it was 1.37 µM; in assay [10], 1.62 µM. In addition, the TGI turned out to be 6.73 µM in [1]; 7.28 µM in assay [2]; 6.81 µM in [3]; 5.64 µM in assay [4]; 4.83 µM in [5]; 4.45 µM in [6]. The TGI stood at 5.62 µM in assay [7], 5.42 µM in assay [8], 4.09 µM in assay [9] and 6.13 µM in [10].
Regarding `COC(=O)C[CH](C(=O)OC)[Ge]([CH3])([CH3])[S]c1ccccc1` (stereo not given), the GI50 is 40.4 µM in [1]; 13 µM in [2]; 1.67 µM in assay [3]; 15.5 µM in [4]; 22.9 µM in assay [5]; 13.9 µM in assay [6]. Moreover, the GI50 in assay [7] was 12 µM; in assay [8], 18.6 µM; in assay [9], 33 µM; in assay [10] it was 18.1 µM. The TGI in [1] is more than 100 µM; in assay [2] it was 26.8 µM; in assay [3], 6.25 µM; in assay [4] it was 28.8 µM; in assay [5], 64.7 µM; in [6] it was 27.1 µM. Also, the TGI in assay [7] was 26.2 µM; in assay [8], 38.5 µM; in assay [9], more than 100 µM; in [10], 72.4 µM.
Turning to `O=C1NC(=O)/C(=C/C=C/c2ccccc2)S1`, the GI50 in assay [1] is 1.95 µM; in assay [2] it was 11.2 µM; in assay [3], 2.01 µM; in [4] it was 2.83 µM; in [5], 1.74 µM; in [6], 14.4 µM. The GI50 in assay [7] was 0.693 µM; in [8] it was 12.1 µM; in assay [9], 5.43 µM; in assay [10], 80.8 µM. For the same molecule, the TGI was 11.1 µM in [1]; more than 59.1 µM in [2]; more than 100 µM in [3]; 13.8 µM in [4]; more than 41.4 µM in [5]; more than 48.3 µM in [6]. The TGI in assay [7] is 18.1 µM; in [8], more than 100 µM; in [9] it was more than 100 µM; in assay [10], more than 100 µM.
With `S=c1nc(-c2ccccc2)oc(=NC2CCCCC2)n1C1CCCCC1`, the GI50 in assay [1] was 3.79 µM; in assay [2], 3.78 µM; in assay [3], 1.75 µM; in [4], 2.93 µM; in assay [5], 4.21 µM; in assay [6], 2.11 µM. Also, the GI50 in assay [7] is 3.85 µM; in assay [8], 4.1 µM; in [9], 2.31 µM; in assay [10] it was 5.56 µM. For the same molecule, the TGI in assay [1] was 13.7 µM; in assay [2] it was 14.6 µM; in [3], 8.87 µM; in [4], 10.2 µM; in assay [5], 19.6 µM; in assay [6] it was 4.22 µM. For the same molecule, the TGI in assay [7] amounted to 15.2 µM; in assay [8], 14.8 µM; in assay [9], 5.98 µM; in assay [10], 61 µM.
As to `COC(=O)C(=O)C1(CCC(C)=O)c2ccccc2-c2ccccc21`, the TGI in assay [1], in [2], in assay [3], in [4], in assay [5] and in [6] was more than 100 µM throughout. The TGI in assay [7], in assay [8], in [9] and in assay [10] was more than 100 µM each time.
